The subject of this assay is Paecilomyces variotii. To be noted: single substance alone, fruit-component drink inoculated with conidia, incubated two weeks at 27° C. The procedure: A drink which contains fruit components was admixed with various concentrations of citric acid and subsequently inoculated with conidia of the fungus Paecilomyces variotii. Subsequently, the inoculated drinks samples were treated with various DMDC concentrations and incubated for two weeks at 27° C.

Molecules are shown by their SMILES. Where two headings read alike, the source gives them in different places. Some results are limits rather than exact numbers.

In the case of `O=C(O)CC(O)(CC(=O)O)C(=O)O` [Citric acid, citric acid], the MHC is given as >30 000 ppm. Further, the MHC (listed as citric acid) is recorded as > 30 000 ppm.
For the compound `COC(=O)OC(=O)OC` [DMDC, dimethyl dicarbonate], the MHC was >250 ppm.

The record behind these values is patent US20100021599A1, “PRESERVATIVE” (LANXESS DEUTSCHLAND GMBH, priority 2006, published 2010).
